The record followed here is ChEMBL document CHEMBL1240300, “Diversity-oriented synthesis: exploring the intersections between chemistry and biology” (Nat Chem Biol, 2005).

Experiment [1] deals with T1, Glycogen synthase kinase-3 beta (Mus musculus, UniProt Q9WV60). The experiment can be described thus: Binding affinity to GSK-3 beta in mouse D3 cells. In kind it is cell-based.
The target in experiment [2] is T1, Glycogen synthase kinase-3 beta. The experiment can be described thus: Inhibition of GSK-3 beta in mouse D3 cells. In kind it is cell-based.
Experiment [3] has the same target. The experiment can be described thus: Inhibition of GSK-3 beta in mouse D3 cells assessed as induction of neuron specific marker beta3-tubulin by immunofluorescence method. Type of experiment: cell-based.
Experiment [4] has the same target. The experiment is described as follows: Inhibition of GSK-3 beta in mouse D3 cells assessed as induction of neuron specific marker microtubule-associated protein 2 by immunofluorescence method. Type of experiment: cell-based.
The target is the same in experiment [5]. The experiment is described as follows: Inhibition of GSK-3 beta in mouse D3 cells assessed as induction of neuron specific marker neurofilament-M by immunofluorescence method. In kind it is cell-based.
The target of experiment [6] is Myc proto-oncogene protein/Transcription factor AP-1 (Gallus gallus, UniProt P01109+P18870). The experiment is described as follows: Inhibition of Myc-Jun protein - protein interaction in chicken embryo fibroblasts assessed as inhibition of cell focus formation11.
Myc proto-oncogene protein/Transcription factor AP-1, sequence (P18870 whole entry): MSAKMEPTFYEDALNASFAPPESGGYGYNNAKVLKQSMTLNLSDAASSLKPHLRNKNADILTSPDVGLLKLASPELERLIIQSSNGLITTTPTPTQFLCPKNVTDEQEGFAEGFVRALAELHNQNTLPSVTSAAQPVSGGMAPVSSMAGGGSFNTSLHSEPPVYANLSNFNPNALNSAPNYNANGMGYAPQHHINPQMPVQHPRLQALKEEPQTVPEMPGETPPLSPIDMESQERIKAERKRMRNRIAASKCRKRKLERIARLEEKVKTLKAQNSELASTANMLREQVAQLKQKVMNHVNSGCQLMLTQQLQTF
Myc proto-oncogene protein/Transcription factor AP-1, sequence (P01109 whole entry): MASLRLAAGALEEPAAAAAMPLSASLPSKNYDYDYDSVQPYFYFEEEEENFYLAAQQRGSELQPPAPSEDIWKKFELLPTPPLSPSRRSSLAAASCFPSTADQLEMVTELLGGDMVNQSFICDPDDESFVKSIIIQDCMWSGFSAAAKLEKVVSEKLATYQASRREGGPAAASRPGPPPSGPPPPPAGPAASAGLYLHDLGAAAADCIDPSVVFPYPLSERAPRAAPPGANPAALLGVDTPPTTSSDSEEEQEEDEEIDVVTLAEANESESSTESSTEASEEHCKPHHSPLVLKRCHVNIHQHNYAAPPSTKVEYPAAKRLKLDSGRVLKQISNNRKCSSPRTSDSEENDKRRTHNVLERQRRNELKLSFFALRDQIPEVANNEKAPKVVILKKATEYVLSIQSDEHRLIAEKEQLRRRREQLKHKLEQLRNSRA
A short description of experiment [7]: Induction of cardiomyogenesis in mouse D3 cells assessed as induction of cadiomyocyte specific marker MEF2 by immunofluorescence method. In kind it is functional, cell-based.
A short description of experiment [8]: Induction of cardiomyogenesis in mouse D3 cells assessed as induction of cadiomyocyte specific marker myosin heavy chain by immunofluorescence method. In kind it is functional, cell-based.
The target in experiment [9] is Histone deacetylase. The experiment is described as follows: Inhibition of HDAC in human A549 cells assessed as induction of histone acetylation by fluorescence microscopy. Type of experiment: cell-based.
Experiment [10] has as its system C3H 10T1/2. The experiment is described as follows: Induction of osteogenesis in mouse C3H10T1/2 cells assessed as induction of osteoblast specific marker alkaline phosphatase by immunofluorescence method. Type of experiment: functional, cell-based.
Experiment [11] can be described thus: Binding affinity to yeast Ure2p. On the set-up: species or system Saccharomyces cerevisiae.

As a reminder, the IC50 is the concentration needed to halve the response being measured. A word on the Kd: it is the constant that tells how readily two partners part at equilibrium. Low values mean tighter binding, high ones weaker binding. The EC50 is the concentration needed to bring the measured effect to its halfway point.

SMILES strings stand for the structures.

T1 sequence (Q9WV60 whole entry): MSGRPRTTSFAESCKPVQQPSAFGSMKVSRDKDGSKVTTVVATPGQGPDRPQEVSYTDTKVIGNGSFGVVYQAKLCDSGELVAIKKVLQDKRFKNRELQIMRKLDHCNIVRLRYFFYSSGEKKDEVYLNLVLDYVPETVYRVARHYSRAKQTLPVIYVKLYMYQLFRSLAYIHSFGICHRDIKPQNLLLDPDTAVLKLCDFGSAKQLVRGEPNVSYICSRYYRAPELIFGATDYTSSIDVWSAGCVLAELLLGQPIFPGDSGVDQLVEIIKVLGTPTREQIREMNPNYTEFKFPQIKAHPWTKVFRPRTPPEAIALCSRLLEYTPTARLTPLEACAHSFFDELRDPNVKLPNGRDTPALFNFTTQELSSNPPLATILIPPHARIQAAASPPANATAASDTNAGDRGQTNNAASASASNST

Turning to `Nc1cccc(-c2cc3c(Oc4cccc(O)c4)ncnc3[nH]2)c1`, the IC50 in experiment [1] stood at 30 nM; in [6], 15000 nM. Moreover, the Kd in experiment [2] came to 126 nM. Besides, the EC50 in [3], in experiment [4] and in [5] was 1000 nM throughout.
As to `COc1ccc(Nc2nccc(NCCO)n2)cc1` [CARDIOGENOL C], the EC50 in experiment [7] and in [8] was 100 nM each time.
As for `Nc1ccccc1NC(=O)CCCCCC(=O)Nc1cccc([C@@H]2O[C@H](CN3CCN(Cc4ccccc4)CC3)C[C@H](c3ccc(CO)cc3)O2)c1` [HISTACIN], the EC50 in experiment [9] was determined as 34000 nM.
On to `c1ccc2c(Oc3nc(Nc4ccc(N5CCOCC5)cc4)c4ncn(C5CCCCC5)c4n3)cccc2c1` [PURMORPHAMINE], for which the EC50 in experiment [10] was determined as 1000 nM.
Take `NCc1ccc([C@H]2O[C@@H](CSc3nc(-c4ccccc4)c(-c4ccccc4)o3)[C@H](c3ccccc3)[C@@H](c3ccc(CO)cc3)O2)cc1` [URETUPAMINE A]: the affinity in experiment [11], expressed as Kd, was 18100 nM.
The same measure, in the same setting: next, `NCc1ccc([C@H]2O[C@@H](CSc3nc(-c4ccccc4)c(-c4ccccc4)o3)C[C@@H](c3ccc(CO)cc3)O2)cc1` [URETUPAMINE B]: 7500 nM.
